Assay [1] addresses T1, Sentrin-specific protease 2 (Homo sapiens) (UniProt Q9HC62).
T1 sequence (whole entry): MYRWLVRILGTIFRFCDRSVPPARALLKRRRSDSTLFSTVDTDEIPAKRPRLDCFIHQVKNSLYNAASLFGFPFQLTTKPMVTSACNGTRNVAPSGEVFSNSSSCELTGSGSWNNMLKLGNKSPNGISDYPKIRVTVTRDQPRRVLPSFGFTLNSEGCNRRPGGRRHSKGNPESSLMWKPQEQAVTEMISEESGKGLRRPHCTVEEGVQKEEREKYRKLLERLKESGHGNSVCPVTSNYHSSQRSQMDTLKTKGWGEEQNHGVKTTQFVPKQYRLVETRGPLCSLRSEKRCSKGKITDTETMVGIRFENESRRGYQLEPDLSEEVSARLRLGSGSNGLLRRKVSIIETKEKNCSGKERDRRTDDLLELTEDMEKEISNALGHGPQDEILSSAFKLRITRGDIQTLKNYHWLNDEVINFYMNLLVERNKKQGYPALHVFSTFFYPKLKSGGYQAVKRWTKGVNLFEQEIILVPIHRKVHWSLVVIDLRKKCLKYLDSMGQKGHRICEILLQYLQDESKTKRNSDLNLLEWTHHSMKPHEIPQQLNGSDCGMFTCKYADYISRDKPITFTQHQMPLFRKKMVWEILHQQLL
As to the kind of experiment: Inhibition of recombinant human SENP2 catalytic domain assessed as release of fluorescent AMC from SUMO-1-AMC preincubated at 10 to 100 uM for 10 mins before substrate addition by fluorescence assay.

Assay [2] deals with T2, Thermolysin (Bacillus thermoproteolyticus) (UniProt P00800).
T2 sequence (whole entry): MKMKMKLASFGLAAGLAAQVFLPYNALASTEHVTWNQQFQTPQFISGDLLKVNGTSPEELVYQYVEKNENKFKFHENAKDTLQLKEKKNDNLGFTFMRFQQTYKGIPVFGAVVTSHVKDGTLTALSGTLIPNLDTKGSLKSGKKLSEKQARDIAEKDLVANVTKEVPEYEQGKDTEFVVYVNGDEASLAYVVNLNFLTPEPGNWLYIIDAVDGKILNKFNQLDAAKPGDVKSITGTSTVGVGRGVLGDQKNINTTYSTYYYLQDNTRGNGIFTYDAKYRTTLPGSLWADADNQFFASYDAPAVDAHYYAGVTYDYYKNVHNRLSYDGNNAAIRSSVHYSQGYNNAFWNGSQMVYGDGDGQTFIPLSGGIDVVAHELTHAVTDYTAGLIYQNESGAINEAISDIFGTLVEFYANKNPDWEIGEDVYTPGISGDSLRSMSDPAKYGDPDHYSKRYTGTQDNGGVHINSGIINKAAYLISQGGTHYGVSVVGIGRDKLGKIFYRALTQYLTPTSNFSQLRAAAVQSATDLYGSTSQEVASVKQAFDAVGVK
Nature of the assay: Inhibition of Bacillus thermoproteolyticus rokko thermolysin using FITC-Casein substrate at 10 to 100 uM by fluorescence assay.

The species entered for assay [3] is Bos taurus. As to the kind of experiment: Inhibition of bovine pancreatic chymotrypsin using FITC-Casein substrate at 10 to 100 uM by fluorescence assay.
Assay [4] relates to HeLa. Nature of the assay: Inhibition of hypoxia-induced HIF1alpha accumulation in human HeLa cells after 6 hrs by Western blot analysis. Type of assay: functional, cell-based. A general note: A western blot detects proteins with antibodies after separation by electrophoresis.
The species entered for assay [5] is Bos taurus. Nature of the assay: Inhibition of bovine pancreatic trypsin using FITC-Casein substrate at 10 to 100 uM by fluorescence assay.
The test system of assay [6] is HeLa. The settings on record: Homo sapiens, 3 uM.
Description: Inhibition of hypoxia-induced HIF1alpha accumulation in human HeLa cells at 3 uM after 6 hrs by Western blot analysis

Calls of active or inactive are those of the source. The rule behind the calls is not given here.

With `CCOC(=O)c1cccc(CNc2ccc(N(C)C(=O)Nc3ccccc3)cc2)c1`, the inhibition entry (in assay [1]; in assay [2]; in the assay filed under Bos taurus [3]; in the assay filed under Bos taurus [5]) was “inactive” each time. Also, the inhibition result with HeLa [4] was “Dose-dependent effect”.

On to `COC(=O)c1cccc(CNc2ccc(N(C)C(=O)Nc3ccccc3)cc2)c1`, for which the inhibition entry with HeLa [6] was “Active”. For the same molecule, in the assay with HeLa [4], the inhibition entry is “Dose-dependent effect”.

Source of the values: ChEMBL document CHEMBL2177099, “Discovery of 1-[4-(N-benzylamino)phenyl]-3-phenylurea derivatives as non-peptidic selective SUMO-sentrin specific protease (SENP)1 inhibitors” (Bioorg Med Chem Lett, 2012).
